Test results reported in patent publication US20030086974A1, “Odour regulation in hygiene products” (priority 2001, published 2003).

Legend:
Assay type in all cases: physicochemical
[1] = Toluene inclusion (precipitation of the cyclodextrin-toluene complex); conditions: 100 mg of sample dissolved in water, 20 μl toluene added to notice precipitation
Procedure: From 4.7 g β-cyclodextrin (dry), an oxidised cyclodextrin was prepared as described in Example 1, using 10 ml 2.0 M NaOCl solution, 150 mg NaBr and 80 mg 4-acetamido-TEMPO. The ratio acid/aldehyde was derived from the sodium hydroxide consumption and also experimentally determined. According to calculation, 6.3 mmol acid and 6.9 mmol aldehyde were produced. […] The reaction mixture was concentrated in vacuum to about 120 ml. […] Precipitation of the oxidised cyclodextrin-toluene complex started slowly i.e. after 10 minutes it was visible that a precipitate was formed. After 5 hours the process of precipitation formation seemed to be finished.
The same experiment was repeated with an acidified solution (pH 3). Here precipitation started immediately after mixing. The process was complete within one hour.
From 4.7 g β-cyclodextrin (dry) an oxidised cyclodextrin was prepared as described in Example 1, using 5 ml 2.0 M NaOCl solution, 150 mg NaBr and 4-acetamido-TEMPO. The ratio acid/aldehyde was derived from the sodium hydroxide consumption and also experimentally determined. According to calculation 2.2 mmol acid and 5.7 mmol aldehyde were produced. […] The reaction mixture was concentrated in vacuum to about 120 ml. […] Precipitation of the oxidised cyclodextrin-toluene complex started immediately and after one hour the process of precipitation formation appeared to be finished.

[2] = Menthone inclusion (precipitation of the complex); conditions: 100 mg of sample dissolved in water, 20 μl menthone added to notice precipitation
[3] = Adsorption of phenolphthalein by oxidised β-cyclodextrin (absorption at 553 nm); conditions: sample 1 mg/ml in sodium carbonate buffer pH 10.3 mixed with 10 μl 0.1% phenolphthalein in ethanol
Procedure: Five grams of β-cyclodextrin (CAVAMAX® W7 from Wacker-CHEMIE GMBH) on dry weight basis was dissolved in 300 ml of demi-water, and 22.4 ml of a 0.032 M 4-acetamido TEMPO solution was; added. Subsequently, β-cyclodextrin was oxidised by addition of sodium hypochlorite. Batches were prepared with theoretically one, two and three anhydroglucose units fully oxidised per cyclodextrin molecule (average) per β-cyclodextrin molecule using sodium hypochlorite. The pH was kept constant during reaction by addition of 0.5 M NaOH, controlled by a pH stat (Metrohm). After completion of the oxidation, the aldehyde groups were reduced with sodium borohydride. The respective batches were concentrated in a rotary evaporator, and subsequently freeze-dried. The freeze-dried material was washed in a methanol/water mixture to remove salts and 4-acetamido-TEMPO. The batches were finally washed with acetone and dried in an oven at 50° C. The inclusion properties were investigated (see Table 1).

With `OC[C@H]1O[C@@H]2O[C@H]3[C@H](O)[C@@H](O)[C@@H](O[C@H]4[C@H](O)[C@@H](O)[C@@H](O[C@H]5[C@H](O)[C@@H](O)[C@@H](O[C@H]6[C@H](O)[C@@H](O)[C@@H](O[C@H]7[C@H](O)[C@@H](O)[C@@H](O[C@H]8[C@H](O)[C@@H](O)[C@@H](O[C@H]1[C@H](O)[C@H]2O)O[C@@H]8CO)O[C@@H]7CO)O[C@@H]6CO)O[C@@H]5CO)O[C@@H]4CO)O[C@@H]3CO` [Example 0, β-cyclodextrin] the Toluene inclusion ([1]; Table 1) was “Yes”, the Toluene inclusion ([1]; Table 2) was “Yes” and the Menthone inclusion ([2]; Table 1) was “Yes”. For the same compound, the Menthone inclusion ([2]; Table 2) was “Yes”, the “Phenolphthalein Absorption (at γ = 553 nm)” value ([3]; Table 1) was 0.025 and the “Phenolphthalein Absorption (at γ = 553 nm)” value ([3]; Table 2, solution without cyclodextrin Abs. = 0.65) was 0.025.
